Key:
Format in all cases: in vivo
Erysiphe graminis—ERYSGT = assay: Powdery Mildew of Wheat, 1-day protectant whole plant test; conditions: 100 ppm spray, 1-day protectant (1DP), wheat cultivar Monon
[1] = system: Leptosphaeria nodorum—LEPTNO; assay: Glume blotch of wheat, 1-day protectant whole plant test; conditions: 100 ppm spray, 1-day protectant (1DP), wheat cultivar Monon
[2] = system: Phytophthora infestans—PHYTIN; conditions: 100 ppm spray, 1-day protectant (1DP), tomatoes cultivar Rutgers
[3] = system: Puccinia recondita—PUCCRT; assay: Brown rust of wheat, 1-day protectant whole plant test; conditions: 100 ppm spray, 1-day protectant (1DP), wheat cultivar Monon

SMILES	ERYSGT percent control of the plant disease compared with untreated, inoculated plants (Erysiphe graminis—ERYSGT) [%]	LEPTNO percent control of the plant disease compared with untreated, inoculated plants [1] [%]	PHYTIN percent control of the plant disease compared with untreated, inoculated plants [2] [%]	PUCCRT percent control of the plant disease compared with untreated, inoculated plants [3] [%]
CNC(=O)C(=NOC)c1cccc(Cl)c1COc1ccc(Sc2cccc(C)c2)cn1 [Compound 7, 2-Methoxyimino-N-methyl-{3-chloro-2-[5-(3-methylphenyl)thio-2-pyridyloxy]methylphenyl}acetamide]	98	98	100	100
CNC(=O)C(=NOC)c1cccc(Cl)c1COc1ccc(Sc2cccc(Cl)c2)cn1 [Compound 8, 2-Methoxyimino-N-methyl-{3-chloro-2-[5-(3-chlorophenyl)thio-2-pyridyloxy]methylphenyl}acetamide]	98	98	100	98
CNC(=O)C(=NOC)c1ccccc1COc1nc(Sc2ccccc2)c(Cl)cc1Cl [Compound 10]	99	98	96	100
CNC(=O)C(=NOC)c1ccccc1COc1nc(Sc2ccc(Cl)cc2)c(Cl)cc1Cl [Compound 11]	69	0	44	89
CNC(=O)C(=NOC)c1ccccc1COc1ccc(C(F)(F)F)c(Sc2ccccc2)n1 [Compound 12]	98	78	94	100
CNC(=O)C(=NOC)c1ccccc1COc1nc(Sc2ccc(C(F)(F)F)cc2)c(Cl)cc1Cl [Compound 13]	98	0	0	98
CNC(=O)C(=NOC)c1ccccc1COc1cccc(Sc2ccccc2)n1 [Compound 14]	92	89	100	100
CNC(=O)C(=NOC)c1ccccc1COc1cccc(Sc2ccc(C)cc2)n1 [Compound 15]	92	67	100	100
CNC(=O)C(=NOC)c1ccccc1COc1cccc(Sc2cccc(C)c2)n1 [Compound 16]	92	89	100	100
CNC(=O)C(=NOC)c1ccccc1COc1cccc(Sc2ccccc2C)n1 [Compound 17]	92	98	100	100
CNC(=O)C(=NOC)c1ccccc1COc1cccc(Sc2ccc(Br)cc2)n1 [Compound 19]	98	98	100	100
CNC(=O)C(=NOC)c1ccccc1COc1cccc(Sc2ccc(Cl)cc2)n1 [Compound 20]	92	98	100	100
CNC(=O)C(=NOC)c1ccccc1COc1cccc(Sc2ccc3ccccc3c2)n1 [Compound 21]	92	98	100	100
CNC(=O)C(=NOC)c1ccccc1COc1cccc(Sc2cccc(C(F)(F)F)c2)n1 [Compound 22]	92	78	100	98
CNC(=O)C(=NOC)c1ccccc1COc1cccc(Sc2cccc(Cl)c2)n1 [Compound 23]	98	78	100	100
CNC(=O)C(=NOC)c1ccccc1COc1cccc(Sc2ccc(F)cc2)n1 [Compound 24]	85	98	100	100
CNC(=O)C(=NOC)c1ccccc1COc1cccc(Sc2ccccc2Cl)n1 [Compound 25]	77	98	94	100
CNC(=O)C(=NOC)c1ccccc1COc1cccc(Sc2c(C)cccc2C)n1 [Compound 26]	69	89	100	98
CNC(=O)C(=NOC)c1ccccc1COc1cccc(Sc2ccccc2F)n1 [Compound 27]	77	98	100	100
CNC(=O)C(=NOC)c1ccccc1COc1cccc(Sc2ccc(Cl)cc2C)n1 [Compound 28]	98	98	100	100
CNC(=O)C(=NOC)c1ccccc1COc1cccc(Sc2ccccc2C(F)(F)F)n1 [Compound 29]	98	78	100	100
CNC(=O)C(=NOC)c1ccccc1COc1cccc(Sc2cccc(F)c2)n1 [Compound 30]	98	98	100	100
CNC(=O)C(=NOC)c1ccccc1COc1cccc(Sc2cccc3ccccc23)n1 [Compound 31]	92	98	100	100
CNC(=O)C(=NOC)c1ccccc1COc1nc(Sc2ccccc2)c(F)cc1F [Compound 32]	77	98	100	100

— US6559170B1, “Pyridine derivatives having fungicidal activity and processes to produce and use same” (Dow AgroScience LLC, priority 1999, dated 2003)
